According to ChEMBL document CHEMBL1201862, “PubChem BioAssay data set” (2004):
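Results reflect a 48-hour exposure of cells in 96-well plates to compound at five concentrations. Here, GI50 denotes the concentration required for 50% inhibition of growth.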 The source made the active and inactive calls. No stated cut-off is given here; in the data, active = GI50 up to about 1.1 µM and inactive = higher.

How the values were obtained:
Test in all cases: NCI tumour cell line growth inhibition, 48 h
[1] = test system: RPMI-8226
[2] = test system: HL-60
[3] = test system: SNB-19
[4] = test system: UO-31
[5] = test system: NCI-H522
[6] = test system: SF-268
[7] = test system: M14
[8] = test system: LOX IMVI
[9] = test system: U-251
[10] = test system: NCI-H460
[11] = test system: DU-145
[12] = test system: A549
[13] = test system: MOLT-4
[14] = test system: MDA-MB-435
[15] = test system: SF-539
[16] = test system: NCI-H23
[17] = test system: RXF 393
[18] = test system: T47D
[19] = test system: COLO 205
[20] = test system: EKVX
[21] = test system: SK-MEL-2
[22] = test system: HCT-15
[23] = test system: OVCAR-3
[24] = test system: KM12
[25] = test system: SK-OV-3
[26] = test system: 786-0
[27] = test system: Malme-3M
[28] = test system: CAKI-1
[29] = test system: UACC-62
[30] = test system: K562
[31] = test system: A498
[32] = test system: IGROV-1
[33] = test system: MDA-N
[34] = test system: SN12C
[35] = test system: SK-MEL-28
[36] = test system: SF-295
[37] = test system: HOP-62
[38] = test system: HCT-116
[39] = test system: OVCAR-4
[40] = test system: NCI-H226
[41] = test system: SK-MEL-5
[42] = test system: HT-29
[43] = test system: OVCAR-5
[44] = test system: SNB-75
[45] = test system: MCF7
[46] = test system: ACHN
[47] = test system: NCI/ADR-RES
[48] = test system: OVCAR-8
[49] = test system: HCC 2998
[50] = test system: SW-620
[51] = test system: CCRF-CEM
[52] = test system: UACC-257
[53] = test system: MDA-MB-231
[54] = test system: PC-3
[55] = test system: TK-10

FC1=C2C3CCC(C3)C2C1(F)F (stereo not given)
GI50 [1]: > 100 µM (inactive) | GI50 [2]: 81.7 µM (inactive) | GI50 [3]: > 100 µM (inactive) | GI50 [4]: > 100 µM (inactive) | GI50 [5]: > 100 µM (inactive) | GI50 [6]: > 100 µM (inactive) | GI50 [7]: > 100 µM (inactive) | GI50 [8]: > 100 µM (inactive) | GI50 [9]: > 100 µM (inactive) | GI50 [10]: > 100 µM (inactive) | GI50 [11]: > 100 µM (inactive) | GI50 [12]: > 100 µM (inactive) | GI50 [13]: > 100 µM (inactive) | GI50 [14]: > 100 µM (inactive) | GI50 [15]: > 100 µM (inactive) | GI50 [16]: > 100 µM (inactive) | GI50 [17]: > 100 µM (inactive) | GI50 [18]: > 100 µM (inactive) | GI50 [19]: > 100 µM (inactive) | GI50 [20]: > 100 µM (inactive) | GI50 [21]: > 100 µM (inactive) | GI50 [22]: > 100 µM | GI50 [23]: > 100 µM (inactive) | GI50 [24]: > 100 µM (inactive) | GI50 [25]: > 100 µM (inactive) | GI50 [26]: > 100 µM (inactive) | GI50 [27]: > 100 µM (inactive) | GI50 [28]: > 100 µM (inactive) | GI50 [29]: > 100 µM (inactive) | GI50 [30]: > 100 µM (inactive) | GI50 [31]: > 100 µM (inactive) | GI50 [32]: > 100 µM (inactive) | GI50 [33]: > 100 µM (inactive) | GI50 [34]: > 100 µM (inactive) | GI50 [35]: > 100 µM (inactive) | GI50 [36]: > 100 µM (inactive) | GI50 [37]: > 100 µM (inactive) | GI50 [38]: > 100 µM (inactive) | GI50 [39]: > 100 µM (inactive) | GI50 [40]: > 100 µM (inactive) | GI50 [41]: > 100 µM (inactive) | GI50 [42]: > 100 µM (inactive) | GI50 [43]: > 100 µM (inactive) | GI50 [44]: > 100 µM (inactive) | GI50 [45]: > 100 µM (inactive) | GI50 [46]: > 100 µM (inactive) | GI50 [47]: > 100 µM (inactive) | GI50 [48]: > 100 µM (inactive) | GI50 [49]: > 100 µM (inactive) | GI50 [50]: > 100 µM (inactive) | GI50 [51]: 47.6 µM (inactive) | GI50 [52]: > 100 µM (inactive) | GI50 [53]: > 100 µM (inactive) | GI50 [54]: > 100 µM (inactive) | GI50 [55]: > 100 µM (inactive)
